Source: patent US11360080B2, “AhR-ROR-γt complex as a biomarker and therapeutic target for autoimmune disease and IL-17A-associated disease” (NATIONAL HEALTH RESEARCH INSTITUTES, priority 2018, dated 2022)

Legend:
[1] = system: splenic T cells (Th17 differentiation); assay: In vitro Th17 differentiation, flow cytometry of IL-17A-producing CD4+ T cells; assay type: cell-based, mouse; conditions: 1 or 5 μM during differentiation
Experimental: (§1) (A) Flow cytometry of IL-17A-producing CD4^+ T cells. Splenic T cells were co-treated with verteporfin (C1) (1 or 5 μM) during Th17 differentiation in vitro. (B) Flow cytometry of IL-17A-producing CD4^+ T cells. Murine in vitro differentiated Th17 cells were stimulated with PMA plus ionomycin and co-treated with verteporfin (C1) (1 or 5 μM) for 30 min. (C) Flow cytometry of Foxp3-producing […] T cells. Splenic T cells were co-treated with verteporfin (C1) (5 μM) during Treg differentiation in vitro. (D) Flow cytometry of Foxp3-producing CD4^+ T cells, which were differentiated from CD4^+ T cells of wild-type or Lck-GLK transgenic mice.
CD4^+ splenic T cells were purified from mice. Cells (5×10^5) were cultured in 1 ml RPMI medium in 48-well plates coated with anti-CD3 (2 μg/ml) and anti-CD28 (3 μg/ml) antibodies. For Th17 differentiation, splenic CD4^+ cells were cultured in the medium containing IL-23 recombinant proteins (50 ng/ml, R&D), IL-6 recombinant proteins (20 ng/ml, R&D), TGF-β recombinant proteins (5 ng/ml, R&D), anti-IL-4 (5 μg/ml, Biolegend), and anti-IFN-γ (5 μg/ml, Biolegend) antibodies. For Th1 differentiation, CD4^+ splenic cells were cultured in the medium containing IL-12 recombinant proteins (5 ng/ml, R&D) and anti-IL-4 antibodies (1 μg/ml, Biolegend).

[2] = biological target: T1, GLK dimers (Homo sapiens, UniProt Q8IVH8); assay: Co-immunoprecipitation of Flag-tagged GLK and GFP-fusion GLK in HEK293T cells; assay type: cell-based; conditions: HEK293T co-IP
T1 construct: expressed in transfected cells; host or cells: HEK293T
T1 sequence (Q8IVH8 whole entry, the tested form may be a part): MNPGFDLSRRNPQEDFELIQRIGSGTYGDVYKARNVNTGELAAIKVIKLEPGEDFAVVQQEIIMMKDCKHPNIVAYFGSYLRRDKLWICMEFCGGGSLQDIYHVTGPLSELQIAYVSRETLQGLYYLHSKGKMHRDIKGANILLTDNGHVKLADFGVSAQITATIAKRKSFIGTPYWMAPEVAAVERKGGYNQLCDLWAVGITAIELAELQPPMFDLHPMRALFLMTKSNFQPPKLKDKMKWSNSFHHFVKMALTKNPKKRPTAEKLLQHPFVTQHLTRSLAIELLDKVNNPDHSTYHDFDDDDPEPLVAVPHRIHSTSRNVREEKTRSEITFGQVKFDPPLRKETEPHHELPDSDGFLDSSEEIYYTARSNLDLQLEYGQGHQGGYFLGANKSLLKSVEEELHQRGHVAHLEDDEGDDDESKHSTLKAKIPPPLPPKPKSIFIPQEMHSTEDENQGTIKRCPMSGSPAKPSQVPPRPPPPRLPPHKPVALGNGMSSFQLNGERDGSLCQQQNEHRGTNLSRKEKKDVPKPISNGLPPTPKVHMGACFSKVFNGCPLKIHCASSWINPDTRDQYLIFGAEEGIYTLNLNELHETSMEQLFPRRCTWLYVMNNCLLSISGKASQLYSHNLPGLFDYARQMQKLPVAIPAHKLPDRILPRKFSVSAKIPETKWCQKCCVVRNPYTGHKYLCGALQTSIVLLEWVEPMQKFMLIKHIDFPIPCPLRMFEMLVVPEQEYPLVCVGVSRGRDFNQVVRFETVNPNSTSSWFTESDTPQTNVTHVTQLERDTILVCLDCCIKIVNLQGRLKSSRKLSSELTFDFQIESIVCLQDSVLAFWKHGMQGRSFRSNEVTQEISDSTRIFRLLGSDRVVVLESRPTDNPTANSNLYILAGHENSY
Excerpt: (A) The molecular docking of GLK kinase domain structure with C1 (verteporfin). A three-dimensional structure model depicts the binding of C1 to the predicted GLK kinase domain containing phosphorylated Ser-170. The putative binding affinity was −7.4 kcal/mol. (B) The molecular docking of GLK kinase domain structure with C2 (alexidine dihydrochloride). A three-dimensional structure model depicts the binding of C2 to the predicted GLK kinase domain containing phosphorylated Ser-170. The putative binding affinity was −7.0 kcal/mol. (C) Co-immunoprecipitation (co-IP) of Flag-tagged GLK and GFP-fusion GLK using lysates of HEK293T cells co-transfected with Flag-GLK and GFP-GLK plasmids. Cells were treated with C1 (verteporfin) or C2 (alexidine dihydrochloride). (D) Administration of the GLK inhibitor C1 (0.556 nmole/g) or C2 (0.085 nmole/g) every 3 days for 30 days in the LLC/luc metastatic lung cancer mouse model. (E) The luciferase activity in mice treated with C1 (verteporfin), C2 (alexidine dihydrochloride), or vehicle was detected by IVIS Spectrum. (F) Luminescent intensity of photons emitted from LLC/luc cells in the images in (e) was quantified. (G) Representative immunohistochemistry of H&E in lung tissues from mice treated with C1 (verteporfin), C2, or vehicle. Scale bar, 0.5 cm. […]

[3] = system: splenic T cells (Treg differentiation); assay: In vitro Treg differentiation, flow cytometry of Foxp3-producing CD4+ T cells; assay type: cell-based, mouse; conditions: 5 μM
Experimental: as §1

[4] = system: in vitro differentiated Th17 cells; assay: IL-17A production of in vitro differentiated Th17 cells, flow cytometry; assay type: cell-based, mouse; conditions: PMA plus ionomycin, 1 or 5 μM for 30 min
Experimental: as §1

[5] = system: murine primary T cells; assay: ELISA of cytokines in supernatants of murine primary T cells stimulated with anti-CD3/CD28; assay type: cell-based, mouse; conditions: 5 μM or 10 μM for 3 days
Experimental: Means±SD are shown, (b) ELISA of IL-17A in supernatants of human T cells. T cells were stimulated with anti-CD3/CD28 and treated with C1 (verteporfin) (1 μM or 5 μM) or C2 (1 μM or 5 μM) for 3 days. HC, healthy control; SLE, systemic lupus erythematosus; RA, rheumatoid arthritis; AS, ankylosing spondylitis; PsA, psoriatic arthritis; PSS, primary Sjögren's syndrome. Means±SD are shown. C1 denotes verteporfin; C2 denotes alexidine dihydrochloride.
We further studied whether IL-17A production is abolished by the inhibitors of GLK-induced AhR-RORγt complex in human and murine T cells. We first tested the inhibitor experiment using murine T cells stimulated with TCR signaling (anti-CD3 plus anti-CD28 antibodies). […] Next, we studied the blocking effect of IL-17 production by the treatment of C1 (verteporfin) or C2 (alexidine dihydrochloride) using human peripheral blood T cells. […] Taken together, GLK inhibitors (verteporfin and alexidine dihydrochloride) inhibit GLK-induced AhR-RORγt complex and IL-17A production in human autoimmune patient T cells, as well as the disease severity of autoimmune animal models. Thus, GLK, GLK signaling, or GLK-induced AhR-RORγt complex can be a promising therapeutic target for autoimmune diseases.

Q: Which results are given for `C=Cc1c(C)c2cc3nc(cc4[nH]c(cc5nc(cc1[nH]2)C(C)=C5CCC(=O)O)c(CCC(=O)OC)c4C)[C@@]1(C)C3=CC=C(C(=O)OC)[C@H]1C(=O)OC` [C1, verteporfin]?
A: Th17 differentiation [1]: inhibited; dimerization of Flag-tagged GLK protein and GFP-GLK fusion protein [2]: blocked; in vitro Treg (Foxp3-expressing CD4+ T cell) differentiation [3]: enhanced; IL-17A production from in vitro differentiated Th17 cells [4]: inhibited; TCR-induced IFN-γ level [5]: partially reduced; TCR-induced IL-17A production [5]: drastically abolished; TCR-induced IL-17B level [5]: not decreased; TCR-induced IL-17E level [5]: not decreased; TCR-induced IL-17F level [5]: not decreased; TCR-induced TNF-α level [5]: partially reduced
